Reference: patent US20250230154A1, “COMPOUND HAVING SHP2 PROTEIN DEGRADING ACTIVITY, AND MEDICAL USES THEREOF” (UBIX THERAPEUTICS, INC., priority 2021, published 2025)

Target: T1, SHP2 protein (Homo sapiens, UniProt Q06124)
T1 sequence (Q06124 1-593): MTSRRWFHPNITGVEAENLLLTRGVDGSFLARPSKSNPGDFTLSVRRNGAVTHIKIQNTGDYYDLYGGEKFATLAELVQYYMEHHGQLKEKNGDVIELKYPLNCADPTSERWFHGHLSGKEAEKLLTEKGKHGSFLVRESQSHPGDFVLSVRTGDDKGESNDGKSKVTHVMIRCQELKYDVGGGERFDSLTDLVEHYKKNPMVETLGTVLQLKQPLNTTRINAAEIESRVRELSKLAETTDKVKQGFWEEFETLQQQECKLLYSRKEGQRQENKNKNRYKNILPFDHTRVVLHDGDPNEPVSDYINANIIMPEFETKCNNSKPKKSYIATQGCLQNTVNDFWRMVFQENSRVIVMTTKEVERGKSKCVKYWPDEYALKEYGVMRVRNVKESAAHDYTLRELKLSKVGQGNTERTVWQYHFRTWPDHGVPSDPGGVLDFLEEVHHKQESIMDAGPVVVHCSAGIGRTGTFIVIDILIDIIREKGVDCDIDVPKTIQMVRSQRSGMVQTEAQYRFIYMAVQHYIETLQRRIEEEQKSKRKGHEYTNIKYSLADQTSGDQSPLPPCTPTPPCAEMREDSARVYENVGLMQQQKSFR
Assay: Measurement of SHP2 protein degradation in MV-4-11 cells (western blotting)
Format: cell-based
Parameters: endogenous in cells; host or cells: MV-4-11
Conditions: MV-4-11 cells, 24 hours
Outline: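 SHP2 protein levels were assessed by western blotting in MV-4-11 cells after a 24 hour compound treatment. Lysates were sonicated, centrifuged, normalized by BCA assay at 562 nm, run on Bis-tris 4-12% gels, transferred to NC membrane, probed with anti-SHPTP2 (70 kDa) and anti-GAPDH (37 kDa) antibodies, and detected on LI-COR Odyssey.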

Row | SMILES | SHP2 degradation (%) 10 nM [%] | SHP2 degradation (%) 100 nM [%] | SHP2 degradation (%) 1000 nM [%]
1 | Cc1ncsc1-c1ccc(CNC(=O)[C@@H]2C[C@@H](O)CN2C(=O)[C@@H](NC(=O)C2(F)CC2)C(C)(C)C)c(OCCN2CCN(c3ncc(C(=O)Nc4cccc(Sc5cnc(N6CCC(C)(CN)CC6)cn5)c4Cl)cn3)CC2)c1 [Example 84, N-(3-((5-(4-(aminomethyl)-4-methylpiperidin-1-yl)pyrazin-2-yl)thio)-2-chlorophenyl)-2-(4-(2-(2-(((2S,4R)-1-((S)-2-(1-fluorocyclopropane-1-carboxamido)-3,3-dimethylbutanoyl)-4-hydroxypyrrolidine-2-carboxamido)methyl)-5-(4-methylthiazol-5-yl)phenoxy)ethyl)piperazin-1-yl)pyrimidine-5-carboxamide] | 48.7 | 97.1 | 
2 | Cc1ncsc1-c1ccc(CNC(=O)[C@@H]2C[C@@H](O)CN2C(=O)[C@@H](NC(=O)C2(F)CC2)C(C)(C)C)c(OCCCN2CCC(CC(=O)Nc3cccc(Sc4cnc(N5CC[C@H](CN)C5)cn4)c3Cl)CC2)c1 [Example 11, (2S,4R)—N-(2-(3-(4-(2-((3-((5-((R)-3-(aminomethyl)pyrrolidin-1-yl)pyrazin-2-yl)thio)-2-chlorophenyl)amino)-2-oxoethyl)piperidin-1-yl)propoxy)-4-(4-methylthiazol-5-yl)benzyl)-1-((S)-2-(1-fluorocyclopropane-1-carboxamido)-3,3-dimethylbutanoyl)-4-hydroxypyrrolidine-2-carboxamide] | −8.9 | 19.2 | 35.9
3 | Cc1ncsc1-c1ccc(CNC(=O)[C@@H]2C[C@@H](O)CN2C(=O)[C@@H](NC(=O)C2(F)CC2)C(C)(C)C)c(OCCN2CCN(c3ccc(C(=O)Nc4cccc(Sc5cnc(N6CCC(C)(CN)CC6)cn5)c4Cl)cn3)CC2)c1 [Example 82, N-(3-((5-(4-(aminomethyl)-4-methylpiperidin-1-yl)pyrazin-2-yl)thio)-2-chlorophenyl)-6-(4-(2-(2-(((2S,4R)-1-((S)-2-(1-fluorocyclopropane-1-carboxamido)-3,3-dimethylbutanoyl)-4-hydroxypyrrolidine-2-carboxamido)methyl)-5-(4-methylthiazol-5-yl)phenoxy)ethyl)piperazin-1-yl)nicotinamide] | 16.2 | 96.2 | 
4 | Cc1ncsc1-c1ccc(CNC(=O)[C@@H]2C[C@@H](O)CN2C(=O)[C@@H](NC(=O)C2(F)CC2)C(C)(C)C)c(OCCC2CCN(C(=O)CC(=O)Nc3cccc(Sc4ncc(N5CCC(C)(N)CC5)nc4N)c3Cl)CC2)c1 [Example 35, (2S,4R)—N-(2-(2-(1-(3-((3-((3-amino-5-(4-amino-4-methylpiperidin-1-yl)pyrazin-2-yl)thio)-2-chlorophenyl)amino)-3-oxopropanoyl)piperidin-4-yl)ethoxy)-4-(4-methylthiazol-5-yl)benzyl)-1-((S)-2-(1-fluorocyclopropane-1-carboxamido)-3,3-dimethylbutanoyl)-4-hydroxypyrrolidine-2-carboxamide] | 74 | 93 | 93
5 | Cc1ncsc1-c1ccc(CNC(=O)[C@@H]2C[C@@H](O)CN2C(=O)[C@@H](NC(=O)C2(F)CC2)C(C)(C)C)c(OCCCN2CCC(CC(=O)Nc3cccc(Sc4ncc(N5CCC(C)(N)CC5)nc4N)c3Cl)CC2)c1 [Example 9, (2S,4R)—N-(2-(3-(4-(2-((3-((3-amino-5-(4-amino-4-methylpiperidin-1-yl)pyrazin-2-yl)thio)-2-chlorophenyl)amino)-2-oxoethyl)piperidin-1-yl)propoxy)-4-(4-methylthiazol-5-yl)benzyl)-1-((S)-2-(1-fluorocyclopropane-1-carboxamido)-3,3-dimethylbutanoyl)-4-hydroxypyrrolidine-2-carboxamide] | 39.6 | 93.3 | 95.6
